Our source for the inhibition values is EP4559911A1, “NOVEL HETEROCYCLIC COMPOUND AND PHARMACEUTICAL COMPOSITION FOR INHIBITING AUTOTAXIN COMPRISING THE SAME” (Nextgen Bioscience Co., Ltd., priority 2022, dated 2024).

The assay concerns the target human Autotaxin protein (Homo sapiens, UniProt Q13822). Description: Evaluation of the inhibitory activity against human Autotaxin protein (18:1 LysoPC substrate, choline assay kit, absorbance at 570 nm). Format: biochemical. The conditions noted are these: compound at 500nM; 2 hours at 37 °C; % inhibition = (1 - absorbance test group / absorbance control group) X 100. As for the experimental part:
Solutions of each compound synthesized (80 uM, 100% dimethyl sulfoxide) were sequentially diluted 5-fold with dimethyl sulfoxide to prepare 6 concentrations. Each concentration of the compound was diluted 2-fold with 1x test buffer (50 mM Tris-Cl (pH 8.0), 5 mM KCl, 1 mM CaCl2, 1 mM MgCl2, 140 mM NaCl, deionized water, 1 mg/mL BSA), and 1 uL (1.25% dimethyl sulfoxide) of this diluted mixture was dispensed into each well of a 96-well clear round-bottom plate. 9 uL of 1x test buffer was added, and 20 uL of 240 nM human autotaxin protein (buffer: 50 mM Tris-HCl, pH 8.0, with 150 mM sodium chloride and 20% glycerol) was added. 10 uL of sonicated 360 uM 18:1 LysoPC (diluted with 1x assay buffer) was added. The reaction was performed for 2 hours in a shaking incubator at 37 °C, and a secondary reaction mixture (choline assay kit, KA1662) (65 uL of 1x assay buffer: 1 uL of choline oxidase: 1 uL of dye probe) was prepared. 60 uL of the secondary reaction mixture was added to the plate where the reaction was performed, and incubated for 30 minutes in a shaker. The absorbance value was measured at a wavelength of 570 nm using a SpectraMax iD3 microplate reader. The percentage inhibition activity value (% inhibition) was calculated by the formula: (1 - absorbance value test group / absorbance value control group) X 100.

The inhibition is the relative decrease from the control value, in per cent. A high value points to strong suppression. In the case of `Fc1cc2c(cc1F)CC(Nc1ccc(-c3nnc(N4CC(c5c[nH]nn5)C4)o3)cn1)C2` [Example 54, 5-(5-(3-(1H-1,2,3-triazol-4-yl)azetidin-1-yl)-1,3,4-oxadiazol-2-yl)-N-(5,6-difluoro-2,3-dihydro-1H-inden-2-yl)pyridin-2-amine], testing at 0.5 µM gave an inhibition of 23.4%.
In turn, `CS(=O)(=O)OC1CN(c2nnc(-c3cnc(NC4Cc5cc(F)c(F)cc5C4)nc3)o2)C1` [Example 55, 1-(5-(2-((5,6-difluoro-2,3-dihydro-1H-inden-2-yl)amino)pyrimidin-5-yl)-1,3,4-oxadiazol-2-yl)azetidin-3-yl methanesulfonate] had an inhibition at 0.5 µM of 17.6%.
`Fc1cc2c(cc1F)CC(Nc1ncc(-c3nnc(N4CC(F)(c5c[nH]nn5)C4)o3)cn1)C2` [Example 56, N-(5,6-difluoro-2,3-dihydro-1H-inden-2-yl)-5-(5-(3-fluoro-3-(1H-1,2,3-triazol-4-yl)azetidin-1-yl)-1,3,4-oxadiazol-2-yl)pyrimidin-2-amine] displayed an inhibition at 0.5 µM of 85.2%.
As to `N#CC1CN(c2nnc(-c3cnc(NC4Cc5cc(F)c(F)cc5C4)nc3)o2)C1` [Example 57, 1-(5-(2-((5,6-difluoro-2,3-dihydro-1H-inden-2-yl)amino)pyrimidin-5-yl)-1,3,4-oxadiazol-2-yl)azetidine-3-carbonitrile], testing at 0.5 µM gave an inhibition of 8.6%.
The compound `Fc1cc2c(cc1F)CC(Nc1ncc(-c3nnc(N4CC(c5nnc(C(F)(F)F)o5)C4)o3)cn1)C2` [Example 58, N-(5,6-difluoro-2,3-dihydro-1H-inden-2-yl)-5-(5-(3-(5-(trifluoromethyl)-1,3,4-oxadiazol-2-yl)azetidin-1-yl)-1,3,4-oxadiazol-2-yl)pyrimidin-2-amine] came in with an inhibition at 0.5 µM of 1%.
For `Clc1cc(Cl)cc(CCNc2ncc(-c3nnc(N4CC(c5c[nH]nn5)C4)o3)cn2)c1` [Example 59, 5-(5-(3-(1H-1,2,3-triazol-4-yl)azetidin-1-yl)-1,3,4-oxadiazol-2-yl)-N-(3,5-dichlorophenethyl)pyrimidin-2-amine], the inhibition at 0.5 µM amounted to 49.5%.
`Fc1cc2c(cc1F)CC(Nc1cnc(-c3nnc(N4CC(c5c[nH]nn5)C4)o3)cn1)C2` [Example 60, 5-(5-(3-(1H-1,2,3-triazol-4-yl)azetidin-1-yl)-1,3,4-oxadiazol-2-yl)-N-(5,6-difluoro-2,3-dihydro-1H-inden-2-yl)pyrazin-2-amine] displayed an inhibition at 0.5 µM of 1%.
The compound `Fc1cc2c(cc1F)CC(Nc1ncc(-c3nnc(N4CC(c5nnc(C(F)F)o5)C4)o3)cn1)C2` [Example 61, N-(5,6-difluoro-2,3-dihydro-1H-inden-2-yl)-5-(5-(3-(5-(difluoromethyl)-1,3,4-oxadiazol-2-yl)azetidin-1-yl)-1,3,4-oxadiazol-2-yl)pyrimidin-2-amine] displayed an inhibition at 0.5 µM of 1%.
Compound `CC(C)(C)C(=O)OCn1cc(C2CN(c3nnc(-c4cnc(NC5Cc6ccc(Br)cc6C5)nc4)o3)C2)nn1` (centres unmarked) [Example 62, (4-(1-(5-(2-((5-bromo-2,3-dihydro-1H-inden-2-yl)amino)pyrimidin-5-yl)-1,3,4-oxadiazol-2-yl)azetidin-3-yl)-1H-1,2,3-triazol-1-yl)methyl pivalate] gave an inhibition at 0.5 µM of 1%.
The compound `CC(C)(C)C(=O)OCn1cc(C2CN(c3nnc(-c4cnc(NC5Cc6ccc(F)cc6C5)nc4)o3)C2)nn1` (centres unmarked) [Example 63, (4-(1-(5-(2-((5-fluoro-2,3-dihydro-1H-inden-2-yl)amino)pyrimidin-5-yl)-1,3,4-oxadiazol-2-yl)azetidin-3-yl)-1H-1,2,3-triazol-1-yl)methyl pivalate] had an inhibition at 0.5 µM of 1%.
For `Brc1ccc2c(c1)CC(Nc1ncc(-c3nnc(N4CC(c5c[nH]nn5)C4)o3)cn1)C2` (centres unmarked) [Example 64, 5-(5-(3-(1H-1,2,3-triazol-4-yl)azetidin-1-yl)-1,3,4-oxadiazol-2-yl)-N-(5-bromo-2,3-dihydro-1H-inden-2-yl)pyrimidin-2-amine], the inhibition at 0.5 µM amounted to 100%.
Compound `Fc1ccc2c(c1)CC(Nc1ncc(-c3nnc(N4CC(c5c[nH]nn5)C4)o3)cn1)C2` (centres unmarked) [Example 65, 5-(5-(3-(1H-1,2,3-triazol-4-yl)azetidin-1-yl)-1,3,4-oxadiazol-2-yl)-N-(5-fluoro-2,3-dihydro-1H-inden-2-yl)pyrimidin-2-amine] gave an inhibition at 0.5 µM of 100%.
With `O=c1[nH]nc(C2CN(c3nnc(-c4cnc(NC5Cc6cc(F)c(F)cc6C5)nc4)o3)C2)o1` [Example 66, 5-(1-(5-(2-((5,6-difluoro-2,3-dihydro-1H-inden-2-yl)amino)pyrimidin-5-yl)-1,3,4-oxadiazol-2-yl)azetidin-3-yl)-1,3,4-oxadiazol-2(3H)-one] the figure was 35.8%.
Consider `Cc1nc(NC2Cc3cc(F)c(F)cc3C2)ncc1-c1nnc(N2CC(c3c[nH]nn3)C2)o1` [Example 67, 5-(5-(3-(1H-1,2,3-triazol-4-yl)azetidin-1-yl)-1,3,4-oxadiazol-2-yl)-N-(5,6-difluoro-2,3-dihydro-1H-inden-2-yl)-4-methylpyrimidin-2-amine], for which testing at 0.5 µM gave an inhibition of 74.7%.
`Fc1cc2c(cc1F)CC(Nc1ncc(-c3nnc(N4CC(c5nnn[nH]5)C4)o3)cn1)C2` [Example 68, 5-(5-(3-(1H-tetrazol-5-yl)azetidin-1-yl)-1,3,4-oxadiazol-2-yl)-N-(5,6-difluoro-2,3-dihydro-1H-inden-2-yl)pyrimidin-2-amine] had an inhibition at 0.5 µM of 17.6%.
With `CC1(c2c[nH]nn2)CN(c2nnc(-c3cnc(NC4Cc5ccccc5C4)nc3)o2)C1` [Example 69, N-(2,3-dihydro-1H-inden-2-yl)-5-(5-(3-methyl-3-(1H-1,2,3-triazol-4-yl)azetidin-1-yl)-1,3,4-oxadiazol-2-yl)pyrimidin-2-amine] the figure was 95.4%; with `COc1ccc2c(c1)CC(Nc1ncc(-c3nnc(N4CC(c5cn(COC(=O)C(C)(C)C)nn5)C4)o3)cn1)C2` (centres unmarked) [Example 70, (4-(1-(5-(2-((5-methoxy-2,3-dihydro-1H-inden-2-yl)amino)pyrimidin-5-yl)-1,3,4-oxadiazol-2-yl)azetidin-3-yl)-1H-1,2,3-triazol-1-yl)methyl pivalate], 9.6%; with `COc1ccc2c(c1)CC(Nc1ncc(-c3nnc(N4CC(c5c[nH]nn5)C4)o3)cn1)C2` (centres unmarked) [Example 71, 5-(5-(3-(1H-1,2,3-triazol-4-yl)azetidin-1-yl)-1,3,4-oxadiazol-2-yl)-N-(5-methoxy-2,3-dihydro-1H-inden-2-yl)pyrimidin-2-amine], 95.5%.
`CC(C)(C)C(=O)OCn1cc(C2CN(c3nnc(-c4cnc(NC5Cc6nccnc6C5)nc4)o3)C2)nn1` [Example 72, (4-(1-(5-(2-((6,7-dihydro-5H-cyclopenta[b]pyrazin-6-yl)amino)pyrimidin-5-yl)-1,3,4-oxadiazol-2-yl)azetidin-3-yl)-1H-1,2,3-triazol-1-yl)methyl pivalate] showed an inhibition at 0.5 µM of 3.1%.
Compound `CC(C)(C)C(=O)OCn1cc(C2CN(c3nnc(-c4cnc(NC5Cc6cccnc6C5)nc4)o3)C2)nn1` (centres unmarked) [Example 73, (4-(1-(5-(2-((6,7-dihydro-5H-cyclopenta[b]pyridin-6-yl)amino)pyrimidin-5-yl)-1,3,4-oxadiazol-2-yl)azetidin-3-yl)-1H-1,2,3-triazol-1-yl)methyl pivalate] showed an inhibition at 0.5 µM of 1.2%.
`c1cnc2c(n1)CC(Nc1ncc(-c3nnc(N4CC(c5c[nH]nn5)C4)o3)cn1)C2` [Example 74, N-(5-(5-(3-(1H-1,2,3-triazol-4-yl)azetidin-1-yl)-1,3,4-oxadiazol-2-yl)pyrimidin-2-yl)-6,7-dihydro-5H-cyclopenta[b]pyrazin-6-amine] came in with an inhibition at 0.5 µM of 7.1%.
As to `Cc1[nH]nnc1C1CN(c2nnc(-c3cnc(NC4Cc5cc(F)c(F)cc5C4)nc3)o2)C1` [Example 75, N-(5,6-difluoro-2,3-dihydro-1H-inden-2-yl)-5-(5-(3-(5-methyl-1H-1,2,3-triazol-4-yl)azetidin-1-yl)-1,3,4-oxadiazol-2-yl)pyrimidin-2-amine], the inhibition at 0.5 µM was 84.6%.
Compound `Fc1cc2c(cc1F)CC(Nc1ncc(-c3nnc(N4CC(c5c[nH]cn5)C4)o3)cn1)C2` [Example 76, 5-(5-(3-(1H-imidazol-4-yl)azetidin-1-yl)-1,3,4-oxadiazol-2-yl)-N-(5,6-difluoro-2,3-dihydro-1H-inden-2-yl)pyrimidin-2-amine] registered an inhibition at 0.5 µM of 64%.
As to `c1cnc2c(c1)CC(Nc1ncc(-c3nnc(N4CC(c5c[nH]nn5)C4)o3)cn1)C2` (centres unmarked) [Example 77, N-(5-(5-(3-(1H-1,2,3-triazol-4-yl)azetidin-1-yl)-1,3,4-oxadiazol-2-yl)pyrimidin-2-yl)-6,7-dihydro-5H-cyclopenta[b]pyridin-6-amine], 0.5 µM produced 43.7% inhibition.
With `CC1(c2c[nH]nn2)CN(C(=O)/C=C/c2cnc(NC3Cc4cc(F)c(F)cc4C3)nc2)C1` [Example 78, (E)-3-(2-((5,6-difluoro-2,3-dihydro-1H-inden-2-yl)amino)pyrimidin-5-yl)-1-(3-methyl-3-(1H-1,2,3-triazol-4-yl)azetidin-1-yl)prop-2-en-1-one], the inhibition at 0.5 µM was found to be 99.1%.
`Fc1cc2c(cc1F)CC(Nc1ncc(-c3nnc(N4CC(n5cncn5)C4)o3)cn1)C2` [Example 79, 5-(5-(3-(1H-1,2,4-triazol-1-yl)azetidin-1-yl)-1,3,4-oxadiazol-2-yl)-N-(5,6-difluoro-2,3-dihydro-1H-inden-2-yl)pyrimidin-2-amine] gave an inhibition at 0.5 µM of 24.7%.
